Data reported in patent publication US12172988B2, “Anticancer and antifungal splice modulators” (priority 2021, dated 2024).
Like-named read-outs stand apart in the source and are kept apart here.

Assays:
Format in all cases: cell-based, human
[1] = tested on: HCT116 colorectal carcinoma cells; assay: MTS cell viability / cell growth inhibition assay; details: for GI50: Homo sapiens, HCT-116, 72 h; for cell growth inhibitory activity compared to FD-895: HCT-116 cells
Protocol: With milligram quantities of 1a-1i at hand, we began our studies to evaluate the relative efficacy of each analogue using cell growth inhibition studies in HCT116 colorectal carcinoma cells. As reported in FIG. 3, GI50 values were collected for each analog after a 72 h treatment using the MTS cell viability assay (Table 12). Under these conditions, the natural FD-895 (1), 3S-FD-895 (1a) 17S-FD-895 (1d), 17-methoxy-FD-895 (1e) provided activities of <10 nM.
HCT-116 cells was cultured in McCoy's 5a (Life Technologies) supplemented with 10% fetal bovine serum (FBS), 2 mM L-glutamine, and 100 U mL^−1 of penicillin and 100 μg mL^−1 of streptomycin at 37° C. in an atmosphere of 5% CO2. Compounds were dissolved in DMSO (MilliporeSigma). Cells were treated with 1-1j in media with ≥0.5% DMSO for 4-72 h.
Studies were conducted in […] cell culture plates. HCT-116 plated at 5×10^3 cells/well were cultured for 24 h and then treated with analogs 1-1j for 4-72 h, then washed twice with 100 μL PBS. PBS (100 μL) was added to each well, followed by 20 μL of CellTiter Aqueous One Solution (Promega). After 2 h at 37° C., absorbance readings were taken at 490 nm (test wavelength) and 690 nm (reference wavelength). GI50 values were calculated in Prism (GraphPad) using greater 3 replicates.
(§1) Cells were treated with 1 or 1a-1j in media (McCoy's 5a (Life Technologies) supplemented with 10% FBS, 2 mM L-glutamine, and 100 U mL^−1 of penicillin and 100 μg mL^−1 of streptomycin 0.5% DMSO) for 4 h or 24 h. Untreated cells were considered were used as negative control. Total RNA was isolated using mirVana miRNA isolation kit (Life Technologies). A 1 μg sample of RNA was subjected to DNAseI from a TURBO DNA free kit (Life Technologies). The cDNA was prepared by using SuperScript III reverse transcriptase kit (Life Technologies). The amount of unspliced RNA for different genes was determined using Power SYBR Green PCR master mix (Applied Biosystems) by qPCR using specific primers for each gene. qPCR using 2.5 μM of each primer was performed on 5 ng of the obtained cDNA. qPCR conditions were as follows: 95° C. for 10 min for one cycle, then 95° C. for 10 min for one cycle, then 95° C. for 30 s, 55° C. for 60 s, 72° C. for 60 s, for 40 cycles using the MXPro. Quantification cycle (Cq) values were identified for each sample, and then RNA levels were calculated using 2-ΔΔCT method. GAPDH was used as a control for normalization. At least three replicates were conducted for each compound. Namely, all genes explored in this study were evaluated from the same cell cultures. Here, individual cultures were used for each compound explored and at least three replicates were used for each compound. While experimental variation occurred between the different compound treatments, the levels of the different intron retention, exon skipping or RNA expression were collected from the same cellular material. Statistics were calculated using a standard one-way ANOVA; p values were represented so that * signifies p<0.0001. HCT116 were treated with analogs 1-1j ranging from 0.1-5000 nM for 72 hours, then cell viability was measured using the MTS assay. GI50 values and confidence intervals were calculated using GraphPad (Table 12).

DNAJB1 = assay: qPCR splicing analysis, DNAJB1 intron retention; details: HCT116, 4 h, 20 times GI50, qPCR relative to GAPDH
Protocol: (§2) HCT116 tumor cells were treated with each analogue at 20 times the G150 value (Table 12) for 4 hours and then cellular RNA was isolated and purified for qPCR. Primers were designed to evaluate intron retention or exon skipping, direct responses to splice modulator treatment. Genes evaluated included those involved in splicing regulation (SF3A1, SF3A3, SF3B1, SF3B2), apoptosis (MCL-1L), protein folding (DNAJB1), and cell cycle regulation (AURKA, PLK-1) relative to the unspliced control GAPDH. For alternative splicing regulator (SF2), primers were designed to evaluate gene expression, which changes in response splice modulator treatment for SF2 relative to the unspliced control GAPDH. (−) denotes untreated cells.
as §2, with “analogues” for “each analogue”, “100 nM (light grey), 250 nM (grey), or 500 nM (black)” for “20 times the G150 value (Table 12)”, “24 h” for “4 hours”, “(MCL-1L), and” for “(MCL-1L),”, “(DNAJB1),” for “(DNAJB1), and cell cycle regulation (AURKA, PLK-1)”, “(—)” for “(−)”
(§3) Next, we turned our efforts to explore the ability of these analogues to modulate splicing. […] We treated cells for 4 h so that we could evaluate early changes in splicing activity, and then cellular RNA was isolated and purified for analyses by qPCR (FIG. 14). Most importantly, none of the concentrations tested led to significant changes in cell viability, ensuring that changes in gene expression were not due to cell death.
(§4) For these studies, we evaluated the expression of genes involved in splicing regulation (SF3A1, SF3A3, SF3B1, SF3B2), apoptosis (MCL-1L), protein folding (DNAJB1), and cell cycle regulation (AURKA, PLK-1) relative to the unspliced control GAPDH. Primers were designed to evaluate intron retention or exon skipping, direct responses to splice modulator treatment. The master splicing regulator alternative splicing factor (SF2) was also evaluated, with the primers for this gene designed to evaluate overall gene expression, which changes in response to splice modulator treatment.
(§5) From this 4 h study (FIG. 14), a small set of analogs (1, 1b, 1g, 1d, 1e, 1i and 1j) were selected to evaluate if effects on splicing when presented for a longer 24 h period. […] Using identical procedures as that used for 4 h, HCT116 cells were treated with three concentrations (100 nM, 250 nM and 500 nM) of each analog for 24 h. Multiple concentrations were used as a means to check further validate the use of the GI50 concentration in our prior study (FIG. 14). As before, none of the concentrations tested led to significant changes in cell viability over the 24-hour time window, ensuring that changes in gene expression were not due to cell death.
Cells were treated with 1 or 1a-1j in media (McCoy's 5a (Life Technologies) supplemented with 10% FBS, 2 mM L-glutamine, and 100 U mL^−1 of penicillin and 100 μg mL^−1 of streptomycin 0.5% DMSO) for 4 h or 24 h. Untreated cells were considered were used as negative control. Total RNA was isolated using mirVana miRNA isolation kit (Life Technologies). […]

SF3A1 = assay: qPCR splicing analysis, SF3A1 intron retention; details: HCT116, 4 h, 20 times GI50, qPCR relative to GAPDH
Protocol: as §2
as §2, with “analogues” for “each analogue”, “100 nM (light grey), 250 nM (grey), or 500 nM (black)” for “20 times the G150 value (Table 12)”, “24 h” for “4 hours”, “(MCL-1L), and” for “(MCL-1L),”, “(DNAJB1),” for “(DNAJB1), and cell cycle regulation (AURKA, PLK-1)”, “(—)” for “(−)”
as §3, §4, §5
(§6) Cells were treated with 1 or 1a-1j in media (McCoy's 5a (Life Technologies) supplemented with 10% FBS, 2 mM L-glutamine, and 100 U mL^−1 of penicillin and 100 μg mL^−1 of streptomycin 0.5% DMSO) for 4 h or 24 h. Untreated cells were considered were used as negative control. Total RNA was isolated using mirVana miRNA isolation kit (Life Technologies). A 1 μg sample of RNA was subjected to DNAseI from a TURBO DNA free kit (Life Technologies). The cDNA was prepared by using SuperScript III reverse transcriptase kit (Life Technologies). […]

AURKA = assay: qPCR splicing analysis, AURKA exon skipping / expression; details: HCT116, 4 h, 20 times GI50, qPCR
Protocol: as §2
Next, we turned our efforts to explore the ability of these analogues to modulate splicing. […] We treated cells for 4 h so that we could evaluate early changes in splicing activity, and then cellular RNA was isolated and purified for analyses by qPCR (FIG. 14). […]
For these studies, we evaluated the expression of genes involved in splicing regulation (SF3A1, SF3A3, SF3B1, SF3B2), apoptosis (MCL-1L), protein folding (DNAJB1), and cell cycle regulation (AURKA, PLK-1) relative to the unspliced control GAPDH. […] The master splicing regulator alternative splicing factor (SF2) was also evaluated, with the primers for this gene designed to evaluate overall gene expression, which changes in response to splice modulator treatment. […]
Cells were treated with 1 or 1a-1j in media (McCoy's 5a (Life Technologies) supplemented with 10% FBS, 2 mM L-glutamine, and 100 U mL^−1 of penicillin and 100 μg mL^−1 of streptomycin 0.5% DMSO) for 4 h or 24 h. […] The amount of unspliced RNA for different genes was determined using Power SYBR Green PCR master mix (Applied Biosystems) by qPCR using specific primers for each gene. qPCR using 2.5 μM of each primer was performed on 5 ng of the obtained cDNA. qPCR conditions were as follows: 95° C. for 10 min for one cycle, then 95° C. for 10 min for one cycle, then 95° C. for 30 s, 55° C. for 60 s, 72° C. for 60 s, for 40 cycles using the MXPro. […]

SF3B2 = assay: qPCR splicing analysis, SF3B2 intron retention; details: HCT116, 4 h, 20 times GI50, qPCR relative to GAPDH
Protocol: as §2
as §2, with “analogues” for “each analogue”, “100 nM (light grey), 250 nM (grey), or 500 nM (black)” for “20 times the G150 value (Table 12)”, “24 h” for “4 hours”, “(MCL-1L), and” for “(MCL-1L),”, “(DNAJB1),” for “(DNAJB1), and cell cycle regulation (AURKA, PLK-1)”, “(—)” for “(−)”
as §3, §4, §5, §6

HCT116 tumor cells = assay: qPCR structure-splicing profile over the gene panel; details: HCT116, 24 h, 100, 250, 500 nM, compared to 1
Protocol: as §2, with “analogues” for “each analogue”, “100 nM (light grey), 250 nM (grey), or 500 nM (black)” for “20 times the G150 value (Table 12)”, “24 h” for “4 hours”, “(MCL-1L), and” for “(MCL-1L),”, “(DNAJB1),” for “(DNAJB1), and cell cycle regulation (AURKA, PLK-1)”, “(—)” for “(−)”
as §4, §5, §1

[2] = HCT116, 72 hours, MTS assay, 0.1-5000 nM, read-out: GI50 value

## CC[C@H](OC)[C@@H](C)[C@H]1O[C@@H]1[C@H](O)[C@H](C)/C=C/C=C(\C)[C@H]1OC(=O)C[C@H](O)CC[C@@](C)(O)[C@@H](OC(C)=O)/C=C/[C@@H]1C [Analog 1, FD-895, reference compound]
[1]; read-out: GI50 value
  GI50: 1.72 nM

## CC[C@H](OC)[C@@H](C)[C@H]1O[C@@H]1[C@H](O)[C@H](C)/C=C/C=C(\C)[C@H]1OC(=O)C[C@@H](O)CC[C@@](C)(O)[C@@H](OC(C)=O)/C=C/[C@@H]1C [Analog 1a, 3S-FD-895]
DNAJB1
  DNAJB1 intron 2 retention (level of intron retention): highest level of intron retention
SF3A1
  SF3A1 intron 6 retention (level of intron retention): more effective than 1
AURKA
  effect on exon 4 skipping in AURKA: most potent effect
[1]
  cell growth inhibitory activity compared to FD-895: compromised activity
[1]; read-out: GI50 value
  GI50: 2.21 nM
[1]; read-out: GI50 value (text)
  GI50: < 10 nM

## CC[C@H](OC)[C@@H](C)[C@H]1O[C@@H]1[C@H](O)[C@H](C)/C=C/C=C(\C)[C@H]1OC(=O)C[C@H](O)CC[C@@](C)(O)[C@H](OC(C)=O)/C=C/[C@@H]1C [Analog 1b, 7R-FD-895]
SF3B2
  SF3B2 intron retention (level of intron retention): improved efficacy
HCT116 tumor cells
  splicing activity over the genes tested: loss of splicing activity when compared to 1
[1]; HCT116 cell growth inhibition, compared to 1
  fold less active (GI50) than 1: 250 fold
[1]
  cell growth inhibitory activity compared to FD-895: compromised activity
[1]; read-out: GI50 value
  GI50: 432 nM

## CC[C@H](OC)[C@@H](C)[C@H]1O[C@@H]1[C@H](O)[C@H](C)/C=C/C=C(\C)[C@@H]1OC(=O)C[C@H](O)CC[C@@](C)(O)[C@@H](OC(C)=O)/C=C/[C@H]1C [Analog 1c, 10R,11R-FD-895]
[1]; read-out: GI50 value
  GI50: 36600 nM
[1]; read-out: GI50 value (text)
  GI50: 37000 nM

## CC[C@H](OC)[C@@H](C)[C@H]1O[C@@H]1[C@H](OC)[C@H](C)/C=C/C=C(\C)[C@H]1OC(=O)C[C@H](O)CC[C@@](C)(O)[C@@H](OC(C)=O)/C=C/[C@@H]1C [Analog 1e, 17-methoxy-FD-895]
DNAJB1
  DNAJB1 intron 2 retention (level of intron retention): highest level of intron retention
SF3A1
  SF3A1 intron 6 retention (level of intron retention): more effective than 1
HCT116 tumor cells
  splicing activity over the genes tested: comparable or slightly reduced splice modulatory activity as 1
[1]
  cell growth inhibitory activity compared to FD-895: comparable cell growth inhibitor activity as 1
[1]; [2]
  GI50: 2.21 nM

## CC[C@H](OC)[C@@H](C)[C@H]1O[C@@H]1[C@@H](OC)[C@H](C)/C=C/C=C(\C)[C@H]1OC(=O)C[C@H](O)CC[C@@](C)(O)[C@@H](OC(C)=O)/C=C/[C@@H]1C [Analog 1f, 17-methoxy-17S-FD-895]
SF3A1
  SF3A1 intron 6 retention (level of intron retention): more effective than 1
[1]; HCT116 GI50, double modification (methylation and inversion at C17)
  fold loss in activity: 10 fold
[1]; [2]
  GI50: 37.6 nM
[1]; HCT116, 72 h treatment, MTS cell viability assay, read-out: GI50 value
  GI50: 38 nM

## CC[C@H](OC)[C@@H](C)[C@H]1O[C@@H]1[C@@H](O)[C@H](C)/C=C/C=C(\C)[C@H]1OC(=O)C[C@H](O)CC[C@@](C)(O)[C@H](OC(C)=O)/C=C/[C@@H]1C [Analog 1h, 7R,17S-FD-895]
[1]; HCT116 GI50, compared to 1b
  fold less effective compared to 1b: 1.8 fold
[1]; HCT116 GI50, compared to 1d
  fold less effective compared to 1d: 380 fold
[1]; read-out: GI50 value
  GI50: 806 nM
[1]; read-out: GI50 value (text)
  GI50: 806 nM
